Measurements taken from ChEMBL document CHEMBL1201862, “PubChem BioAssay data set” (2004).
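Dose response: 5 concentrations. Exposure: 48 h. Format: 96-well plates. Endpoint: linear interpolation; highest concentration if not reached. The concentration for 50% growth inhibition is given as GI50.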 Calls of active or inactive are those of the source. Rule as the data show it: active = GI50 up to about 1.1 µM and inactive = higher.

Key:
Experiment in all cases: DTP human tumour cell line panel, 48 h
DU-145 = tested on: DU-145
HOP-62 = tested on: HOP-62
Hs-578T = tested on: Hs-578T
LOX IMVI = tested on: LOX IMVI
MCF7 = tested on: MCF7
MDA-MB-231 = tested on: MDA-MB-231
MDA-MB-435 = tested on: MDA-MB-435
MDA-N = tested on: MDA-N
NCI/ADR-RES = tested on: NCI/ADR-RES
SF-539 = tested on: SF-539
SK-MEL-2 = tested on: SK-MEL-2
SK-MEL-5 = tested on: SK-MEL-5
SW-620 = tested on: SW-620
T47D = tested on: T47D
UO-31 = tested on: UO-31
BT-549 = tested on: BT-549
HOP-92 = tested on: HOP-92
DLD-1 = tested on: DLD-1
DMS-273 = tested on: DMS-273
SNB-78 = tested on: SNB-78

Compound	GI50 (DU-145)	GI50 (HOP-62)	GI50 (Hs-578T)	GI50 (LOX IMVI)	GI50 (MCF7)	GI50 (MDA-MB-231)	GI50 (MDA-MB-435)	GI50 (MDA-N)	GI50 (NCI/ADR-RES)	GI50 (SF-539)	GI50 (SK-MEL-2)	GI50 (SK-MEL-5)	GI50 (SW-620)	GI50 (T47D)	GI50 (UO-31)	GI50 (BT-549)	GI50 (HOP-92)	GI50 (DLD-1)	GI50 (DMS-273)	GI50 (SNB-78)
N#Cc1c(OCCF)c2ccccc2n2c1nc1ccccc12	79.8 µM (inactive)	29.9 µM (inactive)	17.3 µM (inactive)	31.3 µM (inactive)	16.6 µM (inactive)	> 100 µM (inactive)	46.5 µM (inactive)	> 100 µM (inactive)	45.3 µM (inactive)	16.9 µM (inactive)	> 100 µM (inactive)	49.5 µM (inactive)	> 100 µM (inactive)	> 100 µM (inactive)	14.2 µM (inactive)	–	–	–	–	–
COc1ccc(NC(=O)CC(=O)N2N=C(N3c4ccccc4Sc4ccccc43)CC2c2ccccc2)cc1 (centres undefined)	> 100 µM (inactive)	> 100 µM (inactive)	39.7 µM (inactive)	–	> 100 µM (inactive)	> 100 µM (inactive)	> 100 µM (inactive)	–	> 100 µM (inactive)	> 100 µM (inactive)	> 100 µM (inactive)	> 100 µM (inactive)	> 100 µM (inactive)	> 100 µM (inactive)	> 100 µM (inactive)	> 100 µM (inactive)	> 100 µM (inactive)	–	–	–
COC1OC2COC(c3ccccc3)OC2C(OC(=S)c2ccccc2)C1O (centres undefined)	> 100 µM (inactive)	12 µM (inactive)	27.2 µM (inactive)	7.76 µM (inactive)	> 100 µM (inactive)	14.7 µM (inactive)	10.9 µM (inactive)	> 100 µM (inactive)	15.5 µM (inactive)	13.2 µM (inactive)	51.1 µM (inactive)	> 100 µM (inactive)	> 100 µM (inactive)	1.91 µM (inactive)	> 100 µM (inactive)	> 100 µM (inactive)	> 100 µM (inactive)	–	–	–
C1=N\CCOCC/N=C\c2ccc(cc2)OCc2cccc(n2)COc2ccc/1cc2	> 100 µM (inactive)	> 100 µM (inactive)	> 100 µM (inactive)	–	85.5 µM (inactive)	54.6 µM (inactive)	> 100 µM (inactive)	> 100 µM (inactive)	> 100 µM (inactive)	> 100 µM (inactive)	> 100 µM (inactive)	–	> 100 µM (inactive)	–	> 100 µM (inactive)	> 100 µM (inactive)	> 100 µM (inactive)	–	–	–
Cc1ccc(N2C(=O)C3CSCN3C2=O)cc1 (centres undefined)	–	> 100 µM (inactive)	–	> 100 µM (inactive)	> 100 µM (inactive)	–	–	–	> 100 µM (inactive)	> 100 µM (inactive)	> 100 µM (inactive)	> 100 µM (inactive)	> 100 µM (inactive)	–	> 100 µM (inactive)	–	> 100 µM (inactive)	> 100 µM (inactive)	–	–
C=CCc1c(O)c2c(c3oc(=O)cc(C)c13)CC(C)O2 (centres undefined)	–	> 100 µM (inactive)	–	46.3 µM (inactive)	–	–	–	–	–	> 100 µM (inactive)	> 100 µM (inactive)	> 100 µM (inactive)	> 100 µM (inactive)	–	68.9 µM (inactive)	–	–	48.6 µM (inactive)	> 100 µM (inactive)	> 100 µM (inactive)
CON(C)c1nc(N(C)OC)nc(N(C)OC)n1	> 10 µM (inactive)	> 10 µM (inactive)	> 10 µM (inactive)	> 10 µM (inactive)	> 10 µM (inactive)	> 10 µM (inactive)	> 10 µM (inactive)	> 10 µM (inactive)	> 10 µM (inactive)	> 10 µM (inactive)	> 10 µM (inactive)	> 10 µM (inactive)	> 10 µM (inactive)	> 10 µM (inactive)	> 10 µM (inactive)	–	–	–	–	–
O=C(NC1C=Nc2ccc([N+](=O)[O-])cc2NC1=O)c1cc(Cl)cc([N+](=O)[O-])c1 (centres undefined)	–	> 100 µM (inactive)	–	> 100 µM (inactive)	–	–	–	–	–	> 100 µM (inactive)	> 100 µM (inactive)	> 100 µM (inactive)	> 100 µM (inactive)	–	> 100 µM (inactive)	–	> 100 µM (inactive)	> 100 µM (inactive)	99.5 µM (inactive)	> 100 µM (inactive)
COc1nc(C#CCC(C)O)nc(OC)n1 (centres undefined)	22.9 µM (inactive)	4.89 µM (inactive)	25.7 µM (inactive)	14.2 µM (inactive)	13.1 µM (inactive)	21.2 µM (inactive)	17.9 µM (inactive)	30.6 µM (inactive)	21 µM (inactive)	26 µM (inactive)	33.7 µM (inactive)	18.8 µM (inactive)	23.1 µM (inactive)	47.8 µM (inactive)	18.2 µM (inactive)	18.4 µM (inactive)	–	–	–	–
COCCCNc1nc(N)c(C#N)c(C#N)c1C#N	> 10 µM (inactive)	> 10 µM (inactive)	> 10 µM (inactive)	> 10 µM (inactive)	> 10 µM (inactive)	> 10 µM (inactive)	> 10 µM (inactive)	> 10 µM (inactive)	> 10 µM (inactive)	> 10 µM (inactive)	> 10 µM (inactive)	> 10 µM (inactive)	> 10 µM (inactive)	> 10 µM (inactive)	> 10 µM (inactive)	–	–	–	–	–
Cc1cn(C2CC(N)C(C(=O)NCC(=O)O)O2)c(=O)[nH]c1=O (centres undefined)	> 100 µM (inactive)	> 100 µM (inactive)	> 100 µM (inactive)	> 100 µM (inactive)	> 100 µM (inactive)	> 100 µM (inactive)	> 100 µM (inactive)	> 100 µM (inactive)	> 100 µM (inactive)	–	–	> 100 µM (inactive)	> 100 µM (inactive)	> 100 µM (inactive)	> 100 µM (inactive)	> 100 µM (inactive)	> 100 µM (inactive)	–	–	–
CC1=C2C(O)C(C(C)C(=O)NC(C)C)CCC2(C)C=CC1=O (centres undefined)	–	> 100 µM (inactive)	–	> 100 µM (inactive)	> 100 µM (inactive)	–	–	–	> 100 µM (inactive)	> 100 µM (inactive)	> 100 µM (inactive)	> 100 µM (inactive)	> 100 µM (inactive)	–	> 100 µM (inactive)	–	> 100 µM (inactive)	> 100 µM (inactive)	> 100 µM (inactive)	> 100 µM (inactive)
COC(=O)C(C(=O)C(=O)Nc1nnc(S)[nH]1)c1csc(-n2nc(-c3ccccc3)cc2-c2ccccc2)n1 (centres undefined)	–	> 100 µM (inactive)	–	> 100 µM (inactive)	–	–	–	–	–	–	–	–	> 100 µM (inactive)	–	5.61 µM (inactive)	–	44.5 µM (inactive)	> 100 µM (inactive)	> 100 µM (inactive)	> 100 µM (inactive)
COC(=O)c1cc(-c2cccn2C)c2c(c1C(=O)OC)c1ccccc1n2C	–	–	–	56 µM (inactive)	–	–	–	–	–	43.8 µM (inactive)	> 100 µM (inactive)	44.3 µM (inactive)	85.1 µM (inactive)	–	> 100 µM (inactive)	–	50.5 µM (inactive)	7.62 µM (inactive)	34.1 µM (inactive)	> 100 µM (inactive)
CC(=O)OC1CCC2(C)C3CCC4(C)C(c5ccc(=O)oc5)CC5OC54C3CCC2(O)C1 (centres undefined)	–	0.811 µM (active)	–	1.63 µM (inactive)	2.31 µM (inactive)	–	–	–	1.08 µM (active)	0.75 µM (active)	4.86 µM (inactive)	0.714 µM (active)	1.21 µM (inactive)	–	2.49 µM (inactive)	–	2.45 µM (inactive)	0.521 µM (active)	0.798 µM (active)	1.14 µM (inactive)
Cc1cc(C)nc(NS(=O)(=O)c2ccc(NNC(=O)c3cccc4c(=O)c5ccccc5[nH]c34)cc2)n1	> 100 µM (inactive)	71.8 µM (inactive)	61.7 µM (inactive)	36 µM (inactive)	> 100 µM (inactive)	37.6 µM (inactive)	61.8 µM (inactive)	75.9 µM (inactive)	> 100 µM (inactive)	> 100 µM (inactive)	0.0493 µM (active)	52.1 µM (inactive)	83.8 µM (inactive)	26.1 µM (inactive)	41.6 µM (inactive)	53.5 µM (inactive)	11.6 µM (inactive)	–	–	–
CCN1CCC(O)(C(C(=O)O)c2ccccc2)CC1 (centres undefined)	> 100 µM (inactive)	> 100 µM (inactive)	> 100 µM (inactive)	> 100 µM (inactive)	> 100 µM (inactive)	> 100 µM (inactive)	> 100 µM (inactive)	–	> 100 µM (inactive)	–	> 100 µM (inactive)	> 100 µM (inactive)	> 100 µM (inactive)	> 100 µM (inactive)	> 100 µM (inactive)	> 100 µM (inactive)	–	–	–	–
